Consider 23 compounds from patent US8445512B2, “Substituted quinoline-3-carboxamides as KCNQ2/3 modulators” (Gruenenthal GmbH, priority 2010, dated 2013).

SMILES strings stand for the structures.

The test concerns the target T1, KCNQ2/3 channels (Homo sapiens, UniProt O43525+O43526).
T1 construct: expressed in transfected cells
In words: Fluorescence assay using a voltage sensitive dye (fluorimetry). Type of test: cell-based. The conditions noted are these: CHO-K1 cells expressing KCNQ2/3 channels; for Emax: relative to retigabine = 100%, read-out: Fluorimetry % efficacy (retigabine = 100%). How it is done:
Method I. Fluorescence Assay Using a Voltage Sensitive Dye (Fluorimetry)
[…] CHO-K1 cells expressing KCNQ2/3 channels are cultivated adherently at 37° C., 5% CO2 and 95% humidity in cell culture bottles (e.g. 80 cm^2 TC flasks, Nunc) with DMEM-high glucose (Sigma Aldrich, D7777) including 10% FCS (PAN Biotech, e.g. 3302-P270521) or alternatively MEM Alpha Medium (1×, liquid, Invitrogen, #22571), 10% fetal calf serum (FCS) (Invitrogen, #10270-106, heat-inactivated) and the necessary selection antibiotics.
Before being sown out for the measurements, the cells are washed with 1×DPBS buffer Ca^2+/Mg^2+-free (e.g. Invitrogen, #14190-094) and detached from the bottom of the culture vessel by using Accutase (PAA Laboratories, #L11-007) (incubation with Accutase for 15 min at 37° C.). The cell number is determined using a CASY™ cell counter (TCC, Schärfe System). Depending on the optimal density for each individual cell line, 20,000-30,000 cells/well/100 μl are seeded onto 96-well Corning™ CellBIND™ assay plates (Flat Clear Bottom Black Polystyrene Microplates, #3340). Freshly seeded cells are then left to settle for one hour at room temperature, followed by incubation for 24 hours at 37° C., 5% CO2 and 95% humidity.
The voltage-sensitive fluorescent dye from the Membrane Potential Assay Kit (Red™ Bulk format part R8123 for FLIPR, MDS Analytical Technologies™) is prepared by dissolving the contents of one vessel Membrane Potential Assay Kit Red Component A in 200 ml of extracellular buffer (ES buffer, 120 mM NaCl, 1 mM KCl, 10 mM HEPES, 2 mM CaCl2, 2 mM MgCl2, 10 mM glucose; pH 7.4). After removal of the nutrient medium, the cells are washed once with 200 μl of ES buffer, then loaded for 45 min at room temperature in 100 μl of dye solution in the dark.
Fluorescence measurements are carried out in a BMG Labtech FLUOstar™, BMG Labtech NOVOstar™ or BMG Labtech POLARstar™ instrument (525 nm excitation, 560 nm emission, Bottom Read mode). After incubation with the dye, 50 μl of the test substances in the desired concentrations, or 50 μl of ES buffer for control purposes, are applied to the wells of the assay plate and incubated for 30 min at room temperature while being shielded from light. The fluorescence intensity of the dye is then measured for 5 min and the fluorescence value F1 of each well is thus determined at a given, constant time. 15 μl of a KCl solution are then added to each well (final concentration of potassium ions 92 mM). The change in fluorescence intensity is subsequently monitored until all the relevant values have been obtained (mainly 5-30 min). At a given time post KCl application, a fluorescence value F2 is determined, in this case at the time of the fluorescence peak.
For calculation, the fluorescence intensity F2 is corrected for the fluorescence intensity F1, and the activity (ΔF/F) of the target compound on the potassium channel is determined as follows:
In order to determine whether a substance has agonistic activity,
[formula] can be related to
[formula] of control wells.
[formula] is determined by adding to the well only the buffer solution instead of the test substance, determining the value F1K of the fluorescence intensity, adding the potassium ions as described above, and measuring a value F2K of the fluorescence intensity. F2K and F1K are then calculated as follows: […]
A substance has an agonistic activity on the potassium channel if
[formula] is greater than
Independently of the comparison of
[formula] it is possible to conclude that a target compound has agonistic activity if
[formula] increases dose dependently. Calculations of EC50 and IC50 values are carried out with the aid of ‘Prism v4.0’ software (GraphPad Software™) Method II. Low-Intensity Tail Flick Test (Rat)

Turning to `CC(C)=Cc1nc2cc(C(F)(F)F)ccc2c(C)c1C(=O)NCc1cccc(F)c1` [Example 24, N-[(3-fluorophenyl)-methyl]-4-methyl-2-(2-methyl-prop-1-enyl)-7-(trifluoromethyl)-quinoline-3-carboxylic acid amide], the response was half-maximal at 162 nM (EC50) and the Emax came out at 171%.

In the case of `Cc1c(C(=O)NCc2cccc(F)c2)c(CC(C)C)nc2cc(C(F)(F)F)ccc12` [Example 36, N-[(3-Fluorophenyl)-methyl]-4-methyl-2-(2-methyl-propyl)-7-(trifluoromethyl)-quinoline-3-carboxylic acid amide], the concentration for a half-maximal effect (EC50) came to 82 nM and the Emax was found to be 154%.

For the compound `CC(C)(C)c1nc2cc(C(F)(F)F)ccc2cc1C(=O)NCc1cccc(F)c1` [Example 13, 2-tert-Butyl-N-[(3-fluorophenyl)-methyl]-7-(trifluoromethyl)-quinoline-3-carboxylic acid amide], the concentration for a half-maximal effect (EC50) came out at 829 nM and the Emax came out at 125%.

`CCCc1nc2cc(C(F)(F)F)ccc2c(C)c1C(=O)NCc1cccs1` [Example 1, 4-Methyl-2-propyl-N-(thiophen-2-yl-methyl)-7-(trifluoromethyl)-quinoline-3-carboxylic acid amide]: the response was half-maximal at 160 nM (EC50) and the Emax was determined as 140%.

On to `CC(C)c1nc2cc(C(F)(F)F)ccc2cc1C(=O)NCc1ccc(F)cc1` [Example 12, N-[(4-Fluorophenyl)-methyl]-2-isopropyl-7-(trifluoromethyl)-quinoline-3-carboxylic acid amide], for which a half-maximal response (EC50) required 152 nM and the Emax turned out to be 137%.

Regarding `Cc1c(C(=O)NCc2ccc(F)cc2)c(C2CCCC2)nc2cc(C(F)(F)F)ccc12` [Example 21, 2-Cyclopentyl-N-[(4-fluorophenyl)-methyl]-4-methyl-7-(trifluoromethyl)-quinoline-3-carboxylic acid amide], the EC50 was 223 nM and the Emax was 178%.

Turning to `Cc1c(C(=O)NCc2cccc(F)c2)c(CO)nc2cc(C(F)(F)F)ccc12` [Example 17, N-[(3-fluorophenyl)-methyl]-2-(hydroxymethyl)-4-methyl-7-(trifluoromethyl)-quinoline-3-carboxylic acid amide], the EC50 was found to be 2880 nM and the Emax was 102%.

As for `Cc1c(C(=O)NCc2ccc(F)cc2)c(CC(C)(C)C)nc2cc(C(F)(F)F)ccc12` [Example 19, 2-(2,2-Dimethyl-propyl)-N-[(4-fluorophenyl)-methyl]-4-methyl-7-(trifluoromethyl)-quinoline-3-carboxylic acid amide], the EC50 was determined as 120 nM and the Emax amounted to 149%.

For the compound `Cc1c(C(=O)NCc2cccc(F)c2)c(C2CCCC2)nc2cc(C(F)(F)F)ccc12` [Example 20, 2-Cyclopentyl-N-[(3-fluorophenyl)-methyl]-4-methyl-7-(trifluoromethyl)-quinoline-3-carboxylic acid amide], the EC50 amounted to 49 nM and the Emax was 185%.

As to `C/C=C/c1nc2cc(C(F)(F)F)ccc2c(C)c1C(=O)NCc1cccc(F)c1` [Example 23, N-[(3-fluorophenyl)-methyl]-4-methyl-2-[(E)-prop-1-enyl]-7-(trifluoromethyl)-quinoline-3-carboxylic acid amide], it took 446 nM to reach a half-maximal effect (EC50) and the Emax turned out to be 130%.

For `Cc1c(C(=O)NCc2cccc(F)c2)c(CN(C)C)nc2cc(C(F)(F)F)ccc12` [Example 31, 2-(dimethylaminomethyl)-N-[(3-fluorophenyl)-methyl]-4-methyl-7-(trifluoromethyl)-quinoline-3-carboxylic acid amide], the 50% effective concentration (EC50) stood at 1850 nM and the Emax is 40%.

On to `Cc1c(C(=O)NCc2cccc(F)c2)c(C2CC2)nc2cc(C#N)ccc12` [Example 37, 7-Cyano-2-cyclopropyl-N-[(3-fluorophenyl)-methyl]-4-methyl-quinoline-3-carboxylic acid amide], for which the concentration for a half-maximal effect (EC50) was 108 nM and the Emax stood at 128%.

For the compound `CCCc1nc2cc(C(F)(F)F)ccc2c(C)c1C(=O)NCC1CCCCCC1` [Example 2, N-(Cycloheptyl-methyl)-4-methyl-2-propyl-7-(trifluoromethyl)-quinoline-3-carboxylic acid amide], the EC50 worked out at 327 nM and the Emax stood at 104%.

Turning to `CCc1nc2cc(C#N)ccc2c(C)c1C(=O)NCc1ccc(F)cc1` [Example 35, 7-Cyano-2-ethyl-N-[(4-fluorophenyl)-methyl]-4-methyl-quinoline-3-carboxylic acid amide], the EC50 came to 578 nM and the Emax worked out at 97%.

Turning to `CCc1nc2cc(C(F)(F)F)ccc2c(C)c1C(=O)NCc1ccc(C)c(F)c1` [Example 34, 2-Ethyl-N-[(3-fluoro-4-methyl-phenyl)-methyl]-4-methyl-7-(trifluoromethyl)-quinoline-3-carboxylic acid amide], a half-maximal response (EC50) required 312 nM and the Emax came to 139%.

`CC(C)(C)c1nc2cc(C(F)(F)F)ccc2cc1C(=O)NCc1ccc(F)cc1` [Example 14, 2-tert-Butyl-N-[(4-fluorophenyl)-methyl]-7-(trifluoromethyl)-quinoline-3-carboxylic acid amide]: the half-maximal effective concentration (EC50) worked out at 738 nM and the Emax was 144%.

`CCc1nc2cc(C(F)(F)F)ccc2c(C)c1C(=O)NCc1ccc(F)cc1` [Example 5, 2-Ethyl-N-[(4-fluorophenyl)-methyl]-4-methyl-7-(trifluoromethyl)-quinoline-3-carboxylic acid amide]: the 50% effective concentration (EC50) came out at 266 nM and the Emax was determined as 157%.

On to `CCCc1nc2cc(C(F)(F)F)ccc2c(C)c1C(=O)NCCCC(C)(C)C` [Example 22, N-(4,4-Dimethyl-pentyl)-4-methyl-2-propyl-7-(trifluoromethyl)-quinoline-3-carboxylic acid amide], for which a half-maximal effect (EC50) was put at 185 nM and the Emax worked out at 277%.

With `CCCc1nc2cc(C(F)(F)F)ccc2c(C)c1C(=O)NCc1cccc(F)c1` [Example 4, N-[(3-Fluorophenyl)-methyl]-4-methyl-2-propyl-7-(trifluoromethyl)-quinoline-3-carboxylic acid amide], it took 93 nM to reach a half-maximal effect (EC50) and the Emax is 138%.

Regarding `CCc1nc2cc(C(F)(F)F)ccc2c(C)c1C(=O)NCc1ccc(F)c(C)c1` [Example 32, 2-Ethyl-N-[(4-fluoro-3-methyl-phenyl)-methyl]-4-methyl-7-(trifluoromethyl)-quinoline-3-carboxylic acid amide], the midpoint of the response, the EC50, lay at 317 nM and the Emax was determined as 133%.

For `Cc1c(C(=O)NCc2cccc(F)c2)c(C(C)C)nc2cc(C#N)ccc12` [Example 39, 7-Cyano-N-[(3-fluorophenyl)-methyl]-2-isopropyl-4-methyl-quinoline-3-carboxylic acid amide], the response was half-maximal at 215 nM (EC50) and the Emax came out at 174%.

Consider `Cc1c(C(=O)NCc2ccc(F)cc2)c(C2CC2)nc2cc(C#N)ccc12` [Example 38, 7-cyano-2-cyclopropyl-N-[(4-fluorophenyl)-methyl]-4-methyl-quinoline-3-carboxylic acid amide], for which the concentration giving a half-maximal response (EC50) came out at 118 nM and the Emax is 122%.

On to `CCc1nc2cc(C#N)ccc2c(C)c1C(=O)NCc1cccc(F)c1` [Example 33, 7-Cyano-2-ethyl-N-[(3-fluorophenyl)-methyl]-4-methyl-quinoline-3-carboxylic acid amide], for which the EC50 was found to be 1020 nM and the Emax is 121%.

As usually defined, the EC50 is the concentration giving half of the maximal effect. A low value points to higher potency in that assay.
